From patent US20220211796A1, “PEPTIDE ANTIBIOTICS AND METHODS OF USE THEREOF” (priority 2019, published 2022)
In brackets after ≈: the same amount, converted by molar mass. Numbered stars: 1 amine (or outer) side, 2 acyl side, 3 side chain; on linkers, the order of the positions; unused ones are H or OH. Bridge positions count the residues as written; N and C are the ends. Square brackets hold non-standard residues; d marks the D form. Peptide text beside a SMILES is read from it. TBMB = c1c(C[*:1])cc(C[*:3])cc1C[*:2]

What was measured:
Assay in all cases: microbe, parasite or virus in culture
B. subtilis ATCC 6633 = tested on: B. subtilis ATCC 6633
Procedure: (§1) The L-peptides identified from five different phage display libraries were catalogued as described previously and selected sequences were synthesized in D-enantiomeric form by SPPS for further investigation in several biological assays.
(§2) MICs were determined according to a 96-well microdilution protocol outlined by the Clinical and Laboratory Standard Institute (CLSI) guideline with modifications for peptide antibiotics reported by Wiegand et al.^35 Two-fold serial peptide dilutions were performed to go from 2560 μg/ml to 5 μg/ml in0.2% BSA and 0.01% acetic acid buffer in 96-well polypropylene plates (COSTAR, #3879). Dilution of bacterial suspensions (1:200) of different bacterial strains that were grown until 0.5 McFarland standard were prepared to obtain a final inoculum concentration of 8×10^5 CFU/ml in Mueller-Hinton broth.

E. coli ATCC 25992 = tested on: E. coli ATCC 25992
Procedure: as §1, §2

E. faecalis ATCC 29121 = tested on: E. faecalis ATCC 29121
Procedure: as §1, §2

[1] = tested on: Methicillin-resistant S. aureus (MRSA) ATCC 43300
Procedure: as §1, §2

S. aureus ATCC 6538 = tested on: S. aureus ATCC 6538
Procedure: as §1, §2

[2] = tested on: high level vancomycin resistant E. faecium (vanA) ATCC 51559
Procedure: as §1, §2

[3] = tested on: low level vancomycin resistant E. faecium (vanB) ATCC 51299
Procedure: as §1, §2

[4] = Table 5, low level vancomycin resistant E. faecium ATCC 51299
[5] = Table 6, high level vancomycin resistant E. faecium ATCC51559
[6] = Table 6, low level vancomycin resistant E. faecium ATCC51299

MIC B. subtilis (B. subtilis ATCC 6633; ATCC 6633) [µg/mL]	MIC E. coli (E. coli ATCC 25992; ATCC 25992) [µg/mL]	MIC E. faecalis (E. faecalis ATCC 29121; ATCC 29121) [µg/mL]	MIC MRSA ([1]; ATCC 43300) [µg/mL]	MIC S. aureus (S. aureus ATCC 6538; ATCC 6538) [µg/mL]	MIC VRE (vanA) ([2]; ATCC 51559) [µg/mL]	MIC VRE (vanB) [3, 4] [µg/mL]	Compound	MIC B. subtilis (B. subtilis ATCC 6633; Table 6, B. subtilis ATCC6633) [µg/mL]	MIC E. coli (E. coli ATCC 25992; Table 6, E. Coli ATCC25992) [µg/mL]	MIC E. faecalis (E. faecalis ATCC 29121; Table 6, E. faecalis ATCC29121) [µg/mL]	MIC MRSA ([1]; Table 6, MRSA ATCC43300) [µg/mL]	MIC S. aureus (S. aureus ATCC 6538; Table 6, S. aureus ATCC6538) [µg/mL]	MIC VRE (vanA) [2, 5] [µg/mL]	MIC VRE (vanB) [3, 6] [µg/mL]	other results
128 (≈ 171 µM)	>256	>256	>256	128 (≈ 171 µM)	>256	>256	CC(C)C[C@@H](NC(=O)[C@H](N)C(C)C)C(=O)N[C@@H](C(=O)N[C@H](CCCNC(=N)N)C(=O)N[C@H](CS)C(=O)N[C@H](CS)C(=O)NCC(N)=O)[C@H](C)O [P6, VLTRCCG] (H-[dV][dL][dT][dR][dC][dC]G-NH2)	–	–	–	–	–	–	–	–
64 (≈ 64.5 µM)	>256	128 (≈ 129 µM)	64 (≈ 64.5 µM)	64 (≈ 64.5 µM)	>256	>256	CC[C@@H](C)[C@H]1NC(=O)[C@@H](CC(N)=O)NC(=O)[C@@H](CC(=O)O)NC(=O)[C@H](N)CSSC[C@H](C(N)=O)NC(=O)[C@@H](C(C)C)NC(=O)[C@H]2CCCN2C(=O)[C@@H]([C@H](C)O)NC(=O)[C@@H](CCSC)NC1=O [P13, CDNIMTPVC] (H-[dC][dD][dN][dI][dM][dT][dP][dV][dC]-NH2; disulfide 1-9)	–	–	–	–	–	–	–	–
–	–	–	–	–	–	–	CC[C@@H](C)[C@H]1NC(=O)[C@@H](C(C)C)NC(=O)[C@H]2CSCc3cc(cc(c3)CSC[C@H](C(N)=O)NC(=O)[C@@H](CC(=O)O)NC1=O)CSC[C@@H](N)C(=O)N[C@H](CC(C)C)C(=O)N[C@H](CO)C(=O)N[C@H](CCC(N)=O)C(=O)N[C@H](Cc1ccccc1)C(=O)N2 [P17, CLSQFCVIDC] (H-[dC][dL][dS][dQ][dF][dC][dV][dI][dD][dC]-NH2; linker 1-6-10 via TBMB)	128 (≈ 103 µM)	>256	>256	>256	128 (≈ 103 µM)	>256	>256	–
128 (≈ 155 µM)	>256	>256	>256	128 (≈ 155 µM)	>256	>256	CC(C)C[C@@H](NC(=O)[C@H](NC(=O)[C@@H](Cc1ccc(O)cc1)NC(=O)[C@@H](CS)NC(=O)[C@@H](CS)NC(=O)[C@H](N)CCCCN)[C@H](C)O)C(=O)N1CCC[C@@H]1C(N)=O [P5, KCCYTLP] (H-[dK][dC][dC][dY][dT][dL][dP]-NH2)	–	–	–	–	–	–	–	–
32 (≈ 42.8 µM)	>256	>256	>256	64 (≈ 85.6 µM)	>256	>256	CC(C)C[C@@H](NC(=O)[C@@H](Cc1ccccc1)NC(=O)CNC(=O)[C@H](N)[C@H](C)O)C(=O)N[C@@H](C(=O)N[C@H](CC(N)=O)C(=O)N[C@@H](C(N)=O)C(C)C)C(C)C [P7, TGFLVNV] (H-[dT]G[dF][dL][dV][dN][dV]-NH2)	–	–	–	–	–	–	–	–
32 (≈ 29.7 µM)	>256	64 (≈ 59.5 µM)	64 (≈ 59.5 µM)	64 (≈ 59.5 µM)	>256	>256	CC(C)C[C@H]1NC(=O)[C@H](N)CSSC[C@H](C(N)=O)NC(=O)[C@@H](Cc2c[nH]c3ccccc23)NC(=O)[C@@H](CCCCN)NC(=O)[C@@H](CCC(=O)O)NC(=O)CNC(=O)[C@@H](CC(C)C)NC(=O)[C@@H](CCCCN)NC1=O [P9, CLKLGEKWC] (H-[dC][dL][dK][dL]G[dE][dK][dW][dC]-NH2; disulfide 1-9)	–	–	–	–	–	–	–	–
–	–	–	–	–	–	–	CC(C)[C@H]1NC(=O)CNC(=O)[C@@H](Cc2ccccc2)NC(=O)[C@H]2CSCc3cc(cc(c3)CSC[C@H](C(N)=O)NC(=O)[C@@H](CO)NC(=O)[C@@H](CCC(N)=O)NC1=O)CSC[C@@H](N)C(=O)NCC(=O)N[C@H](C)C(=O)N[C@H](CCC(N)=O)C(=O)NCC(=O)N2 [P20, CGAQGCFGVQSC] (H-[dC]G[dA][dQ]G[dC][dF]G[dV][dQ][dS][dC]-NH2; linker 1-6-12 via TBMB)	32 (≈ 25.1 µM)	>256	256 (≈ 201 µM)	256 (≈ 201 µM)	32 (≈ 25.1 µM)	>256	256 (≈ 201 µM)	–
–	–	–	–	–	–	–	CSCC[C@H]1NC(=O)[C@@H](CC(=O)O)NC(=O)[C@H]2CSCc3cc(cc(c3)CSC[C@H](C(N)=O)NC(=O)[C@@H](Cc3c[nH]cn3)NC(=O)[C@@H](CC(C)C)NC1=O)CSC[C@@H](N)C(=O)N[C@H](CCC(N)=O)C(=O)N[C@H](Cc1ccc(O)cc1)C(=O)N[C@H](CC(N)=O)C(=O)N[C@H](CC(=O)O)C(=O)N2 [P16, COYNDCDMLHC] (H-[dC][dQ][dY][dN][dD][dC][dD][dM][dL][dH][dC]-NH2; linker 1-6-11 via TBMB)	64 (≈ 43.9 µM)	>256	128 (≈ 87.8 µM)	128 (≈ 87.8 µM)	64 (≈ 43.9 µM)	>256	>256	–
32 (≈ 33.8 µM)	>256	32 (≈ 33.8 µM)	64 (≈ 67.6 µM)	32 (≈ 33.8 µM)	>256	64 (≈ 67.6 µM)	CC[C@@H](C)[C@H]1NC(=O)[C@@H](CO)NC(=O)[C@H](N)CSSC[C@H](C(N)=O)NC(=O)[C@@H](Cc2c[nH]cn2)NC(=O)[C@@H]([C@H](C)O)NC(=O)[C@@H](CC(C)C)NC(=O)[C@@H](CO)NC(=O)[C@@H](CO)NC1=O [P11, CSISSLTHC] (H-[dC][dS][dI][dS][dS][dL][dT][dH][dC]-NH2; disulfide 1-9)	–	–	–	–	–	–	–	–
32 (≈ 30.9 µM)	>256	64 (≈ 61.8 µM)	64 (≈ 61.8 µM)	–	>256	>256	CC[C@@H](C)[C@@H](NC(=O)[C@@H](Cc1ccc(O)cc1)NC(=O)[C@H](N)Cc1c[nH]cn1)C(=O)N[C@H](CC(=O)O)C(=O)N[C@H](Cc1ccccc1)C(=O)N[C@H](CCCNC(=N)N)C(=O)N[C@H](Cc1c[nH]c2ccccc12)C(N)=O [P8, HYIDFRW] (H-[dH][dY][dI][dD][dF][dR][dW]-NH2)	–	–	–	–	–	–	–	–
–	–	–	–	–	–	–	CC(C)C[C@H]1NC(=O)[C@@H](CCC(N)=O)NC(=O)[C@@H](CO)NC(=O)[C@@H](CO)NC(=O)[C@@H](CO)NC(=O)[C@H]2CSCc3cc(cc(c3)CSC[C@H](C(N)=O)NC(=O)[C@@H](Cc3ccc(O)cc3)NC1=O)CSC[C@@H](N)C(=O)N[C@H]([C@H](C)O)C(=O)N[C@H](CCCNC(=N)N)C(=O)N[C@H](C(C)C)C(=O)N2 [P19, CTRVCSSSQLYC] (H-[dC][dT][dR][dV][dC][dS][dS][dS][dQ][dL][dY][dC]-NH2; linker 1-5-12 via TBMB)	128 (≈ 87.5 µM)	>256	>256	>256	128 (≈ 87.5 µM)	>256	>256	–

Compound	MIC B. subtilis (B. subtilis ATCC 6633; ATCC 6633) [µg/mL]	MIC E. coli (E. coli ATCC 25992; ATCC 25992) [µg/mL]	MIC E. faecalis (E. faecalis ATCC 29121; ATCC 29121) [µg/mL]	MIC MRSA ([1]; ATCC 43300) [µg/mL]	MIC S. aureus (S. aureus ATCC 6538; ATCC 6538) [µg/mL]	MIC VRE (vanA) ([2]; ATCC 51559) [µg/mL]	MIC VRE (vanB) [3, 4] [µg/mL]	MIC B. subtilis (B. subtilis ATCC 6633; Table 6, B. subtilis ATCC6633) [µg/mL]	MIC E. coli (E. coli ATCC 25992; Table 6, E. Coli ATCC25992) [µg/mL]	MIC E. faecalis (E. faecalis ATCC 29121; Table 6, E. faecalis ATCC29121) [µg/mL]	MIC MRSA ([1]; Table 6, MRSA ATCC43300) [µg/mL]	MIC S. aureus (S. aureus ATCC 6538; Table 6, S. aureus ATCC6538) [µg/mL]	MIC VRE (vanA) [2, 5] [µg/mL]	MIC VRE (vanB) [3, 6] [µg/mL]	other results
CC(C)[C@@H](N)C(=O)N[C@H](Cc1c[nH]cn1)C(=O)N[C@H](Cc1c[nH]c2ccccc12)C(=O)N[C@H](CC(=O)O)C(=O)N[C@H](Cc1ccccc1)C(=O)N[C@H](CCCNC(=N)N)C(=O)N[C@H](CCC(N)=O)C(=O)N[C@H](Cc1c[nH]c2ccccc12)C(=O)N[C@H](Cc1c[nH]c2ccccc12)C(=O)N[C@H](CCC(N)=O)C(=O)N1CCC[C@@H]1C(=O)N[C@H](CO)C(N)=O [P4, VHWDFRQWWQPS] (H-[dV][dH][dW][dD][dF][dR][dQ][dW][dW][dQ][dP][dS]-NH2)	32 (≈ 19.2 µM)	>256	32 (≈ 19.2 µM)	64 (≈ 38.3 µM)	32 (≈ 19.2 µM)	>256	128 (≈ 76.6 µM)	–	–	–	–	–	–	–	–
CSCC[C@H]1NC(=O)[C@H]2CCCN2C(=O)[C@@H]([C@H](C)O)NC(=O)[C@@H](C)NC(=O)CNC(=O)[C@@H](CCCNC(=N)N)NC(=O)[C@H](N)CSSC[C@H](C(N)=O)NC(=O)[C@@H](CO)NC1=O [P10, CRGATPMSC] (H-[dC][dR]G[dA][dT][dP][dM][dS][dC]-NH2; disulfide 1-9)	–	–	–	–	–	–	>256	–	–	–	–	–	–	–	MIC B. subtilis (B. subtilis ATCC 6633; Table 5, B. subtilis ATCC 6633): 128 µg/mL (≈ 139 µM); MIC E. coli (E. coli ATCC 25992; Table 5, E. coli ATCC 25992): >256 µg/mL; MIC E. faecalis (E. faecalis ATCC 29121; Table 5, E. faecalis ATCC 29121): 256 µg/mL (≈ 278 µM); MIC MRSA ([1]; Table 5, MRSA ATCC 43300): 128 µg/mL (≈ 139 µM); MIC S. aureus (S. aureus ATCC 6538; Table 5, S. aureus ATCC 6538): 128 µg/mL (≈ 139 µM); MIC VRE (vanA) ([2]; Table 5, high level vancomycin resistant E. faecium ATCC 51559): >256 µg/mL
